Key:
[1] = system: Candida haemulonii complex; assay: Biofilm-growing cells, overall across isolates; type: cell-based; conditions: for Overall GM-bMIC: geometric mean across strains, values marked * do not include LIP Ch4 (>512)
In short: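 XTT readout; bMIC = min. conc. inhibiting 50% metabolic activity vs untreated wells. Preformed 48 h biofilms (10^6 cells, Sabouraud-dextrose broth, 37°C), PBS-washed, then 48 h compound exposure at 37°C.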

[2] = Solubility in solvents; type: physicochemical; conditions: solvents as named
Protocol: {[Cu(3,6,9-tdda)(phen)2].3H2O.EtOH}n (7). Step (i): Copper(II) acetate hydrate (1.50 g; 7.51 mmol) was dissolved in ethanol (50 mL) and the solution was added to an ethanolic solution (25 mL) of 3,6,9-trioxaundecanedioic acid (3,6,9-tddaH2) (2.84 g; […]). The light-green suspension was refluxed for 1 h, and after cooling to room temperature the light-green solid, [Cu(3,6,9-tdda)].H2O, was filtered off, washed with cold ethanol and air dried. Yield: 1.88 g (82.97%). % Calculated: C: 31.84, H: 4.68. % Found: C: 32.20, H: 4.60. […] Step (ii): [Cu(3,6,9-tdda)].H2O (1.00 g; 3.31 mmol) and phen (2.39 g; 13.26 mmol) were dissolved together in ethanol (50 mL) and the resulting dark-green mixture was refluxed for 2 h. The suspension was cooled and the green solid, {[Cu(3,6,9-tdda)(phen)2]3H2O.EtOH}n(7), was filtered off, washed with cold ethanol and air dried. Yield: 1.63 g (66.09%). % Calculated: C: 54.87, H: 5.42, N: 7.53. % Found: C: 54.65, H: 5.63, N: 7.39.
[Ag2(3,6,9-tdda)(phen)4].EtOH (16). Step (i): Silver(I) acetate (3.00 g; 17.97 mmol) was dissolved in ethanol (30 mL) and the solution was added to an ethanolic solution (25 mL) of 3,6,9-trioxaundecanedioic acid (3,6,9-tddaH2) (2.84 g; 8.95 mmol) and the orange-brown suspension refluxed for 3 h. […] Green [Ag2(3,6,9-tdda)(phen)4].EtOH (16) precipitated and was filtered off, washed with cold ethanol and air dried. Yield: 0.83 g (65.10%). % Calculated: C: 57.92, H: 4.19, N: 9.32. % Found: C: 57.75, H: […], N: 9.02. IR (KBr) νmax: 3380, 3046, 2905, 1978, 1804, 1618, 1585, 1509, 1421, 1322, 1263, 1215, 1121, 1077, 1018, 932, 890, 838, 726, 621, 465, 413 cm^−1. ^1H NMR (500 MHz, DMSO-d6, 313 K, TMS) δ = 9.12(8H, s), 8.63 (8H, d), 8.08 (8H, s), 7.91 (8H, dd), 3.74 (4H, s), 3.57 (8H, dd). ^13C NMR (125 MHz, DMSO-d6, 313 K, TMS) δ = 173.41, 151.28, 143.57, 138.03, 129.24, 127.37, 124.74, 71.44, 70.42, 69.74.

| Molecule | decrease in activity on going from planktonic to biofilm cells ([1]; biofilm MIC versus planktonic MIC) [fold] | Overall GM-bMIC [1] [mg/L] | Solubility [2] |
| --- | --- | --- | --- |
| CCO.O=C([O-])COCCOCCOCC(=O)[O-].[Ag+].[Ag+].c1cnc2c(c1)ccc1cccnc12.c1cnc2c(c1)ccc1cccnc12.c1cnc2c(c1)ccc1cccnc12.c1cnc2c(c1)ccc1cccnc12 [compound 16, [Ag2(3,6,9-tdda)(phen)4].EtOH] | 6.3 | 6.35 | soluble in H2O, MeOH, EtOH and insoluble in ethyl acetate and acetone |
| {[Cu(3,6,9-tdda)(phen)2].3H2O.EtOH}n [compound 7] |  | 5.88 | soluble in H2O, MeOH, EtOH and insoluble in ethyl acetate and acetone |
